Results: patent US9884839B2, “Inhibitors of 17Beta-hydroxysteroid dehydrogenases type 1 and type 2” (ElexoPharm GmbH, priority 2014, dated 2018)
pIC50: −log10 of the molar value. “And” between values parts separate entries of the source, which are not always exact repeats. Equal values may be shown once. Read-outs that look alike come from different tables or passages of the source.

How the values were obtained:
Format in all cases: biochemical
rat 17β-HSD1 = biological target: T1, rat 17β-HSD1 (Rattus norvegicus, UniProt P51657); test: Inhibition of rat 17β-HSD1 (recombinant, HEK293 lysate); conditions: for inhibition at […] / % Inhibition r17β-HSD1: Cmpd conc. 250 nM
T1 construct: made in house; host or cells: HEK293 cells, transient transfection; 1,000 g supernatant of the cell lysate
T1 sequence (P51657 1-344): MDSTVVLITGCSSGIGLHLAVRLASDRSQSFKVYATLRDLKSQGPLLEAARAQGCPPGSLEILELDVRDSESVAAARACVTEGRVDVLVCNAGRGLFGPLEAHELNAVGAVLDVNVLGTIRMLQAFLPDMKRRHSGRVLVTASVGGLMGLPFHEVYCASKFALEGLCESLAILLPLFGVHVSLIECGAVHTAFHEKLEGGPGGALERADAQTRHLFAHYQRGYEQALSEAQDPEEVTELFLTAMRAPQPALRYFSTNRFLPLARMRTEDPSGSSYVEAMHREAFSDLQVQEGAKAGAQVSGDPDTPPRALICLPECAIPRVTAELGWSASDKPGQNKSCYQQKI

human 17β-HSD2 = biological target: T2, human 17β-HSD2 (Homo sapiens, UniProt P37059); test: Inhibition of human 17β-HSD2 (conversion of [3H]-E2 to E1); conditions: for inhibition at 1 µM: read-out: % inhibition h17β-HSD2 @ 1 μM; for IC50: read-out: IC50 [nM] h17β-HSD2
T2 construct: 17β-HSD2 was obtained from the microsomal fraction; from tissue; host or cells: human placenta, microsomal fraction
T2 sequence (P37059 1-387): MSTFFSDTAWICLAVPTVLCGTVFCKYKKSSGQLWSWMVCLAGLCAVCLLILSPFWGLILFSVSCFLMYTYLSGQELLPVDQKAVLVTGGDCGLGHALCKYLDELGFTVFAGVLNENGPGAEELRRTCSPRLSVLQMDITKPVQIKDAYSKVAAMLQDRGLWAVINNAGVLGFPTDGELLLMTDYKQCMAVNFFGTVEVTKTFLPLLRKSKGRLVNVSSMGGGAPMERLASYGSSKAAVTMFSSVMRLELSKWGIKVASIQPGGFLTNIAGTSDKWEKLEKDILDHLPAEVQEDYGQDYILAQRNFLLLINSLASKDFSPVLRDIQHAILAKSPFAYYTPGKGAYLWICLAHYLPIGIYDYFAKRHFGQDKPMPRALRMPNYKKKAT
Protocol: Fresh human placenta was homogenized, and cytosolic fraction and microsomes were separated by differential centrifugation at 1,000 g, 10,000 g and 150,000 g.
(§1) The conversion rate was calculated after analysis of the resulting chromatograms according to the following equation: % conversion=[% E1/(% E1+% E2)]×100

mouse 17β-HSD1 = biological target: T3, mouse 17β-HSD1 (Mus musculus, UniProt P51656); test: Inhibition of mouse 17β-HSD1 (recombinant, HEK293 lysate)
T3 construct: made in house; host or cells: HEK293 cells, transient transfection; 1,000 g supernatant of the cell lysate
T3 sequence (P51656 1-344): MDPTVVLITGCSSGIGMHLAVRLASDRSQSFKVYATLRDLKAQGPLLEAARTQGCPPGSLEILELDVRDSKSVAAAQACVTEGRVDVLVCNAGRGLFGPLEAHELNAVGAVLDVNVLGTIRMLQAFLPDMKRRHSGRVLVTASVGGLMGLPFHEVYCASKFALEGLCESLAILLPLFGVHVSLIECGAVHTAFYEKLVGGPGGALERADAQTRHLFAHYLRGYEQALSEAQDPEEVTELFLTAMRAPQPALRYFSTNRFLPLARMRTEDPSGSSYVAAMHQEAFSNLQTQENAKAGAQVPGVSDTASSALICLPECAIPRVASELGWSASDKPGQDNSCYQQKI

human 17β-HSD1 = biological target: T4, human 17β-HSD1 (Homo sapiens, UniProt P14061); test: Inhibition of human 17β-HSD1 (conversion of [3H]-E1 to E2, HPLC radioflow detection); conditions: for inhibition at 0.1 µM: read-out: % inhibition h17β-HSD1 @ 100 nM, compound 100 nM; for IC50: read-out: IC50 [nM] h17β-HSD1; for inhibition at 1 µM: read-out: % inhibition h17β-HSD1 @ 1 μM
T4 construct: For the partial purification of 17β-HSD1, the cytosolic fraction was precipitated with ammonium sulfate; from tissue; host or cells: human placenta, cytosolic fraction, ammonium sulfate precipitate
T4 sequence (P14061 1-328): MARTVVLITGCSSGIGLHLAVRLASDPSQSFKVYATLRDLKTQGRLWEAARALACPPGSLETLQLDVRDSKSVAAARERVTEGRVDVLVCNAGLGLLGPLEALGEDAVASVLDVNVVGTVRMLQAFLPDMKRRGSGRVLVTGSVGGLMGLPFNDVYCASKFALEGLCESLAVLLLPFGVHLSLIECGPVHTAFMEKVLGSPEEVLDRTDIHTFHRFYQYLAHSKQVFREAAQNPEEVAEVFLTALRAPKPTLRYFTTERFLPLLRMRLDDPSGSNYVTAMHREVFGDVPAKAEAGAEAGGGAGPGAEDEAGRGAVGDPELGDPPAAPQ

mouse 17β-HSD2 = biological target: T5, mouse 17β-HSD2 (Mus musculus, UniProt P51658); test: Inhibition of mouse 17β-HSD2 (liver microsomal fraction); conditions: for pIC50: read-out: IC50 m17β-HSD2
T5 construct: The pellet fractions containing the microsomal 17β-HSD2 were used for the determination of E1 formation; from tissue; host or cells: mouse liver, microsomal fraction
T5 sequence (P51658 1-381): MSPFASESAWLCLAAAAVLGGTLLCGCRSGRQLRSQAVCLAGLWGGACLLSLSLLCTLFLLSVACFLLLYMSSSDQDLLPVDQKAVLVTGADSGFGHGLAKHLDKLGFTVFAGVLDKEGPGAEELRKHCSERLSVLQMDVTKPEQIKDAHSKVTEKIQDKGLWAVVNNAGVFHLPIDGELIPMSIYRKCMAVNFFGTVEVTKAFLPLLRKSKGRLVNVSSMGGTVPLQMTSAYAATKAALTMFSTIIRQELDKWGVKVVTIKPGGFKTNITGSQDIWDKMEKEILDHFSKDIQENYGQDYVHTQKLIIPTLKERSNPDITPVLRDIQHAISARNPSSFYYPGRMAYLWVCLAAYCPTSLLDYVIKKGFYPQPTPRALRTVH
Protocol: (§2) Microsomal 17β-HSD2 fractions were obtained from mouse or rat liver. Fresh liver tissues were processed as described for the human placental 17β-HSD2 preparation. The pellet fractions containing the microsomal 17β-HSD2 were used for the determination of E1 formation.
as §1

rat 17β-HSD2 = biological target: T6, rat 17β-HSD2 (Rattus norvegicus, UniProt Q62730); test: Inhibition of rat 17β-HSD2 (liver microsomal fraction)
T6 construct: The pellet fractions containing the microsomal 17β-HSD2 were used for the determination of E1 formation; from tissue; host or cells: rat liver, microsomal fraction
T6 sequence (Q62730 1-381): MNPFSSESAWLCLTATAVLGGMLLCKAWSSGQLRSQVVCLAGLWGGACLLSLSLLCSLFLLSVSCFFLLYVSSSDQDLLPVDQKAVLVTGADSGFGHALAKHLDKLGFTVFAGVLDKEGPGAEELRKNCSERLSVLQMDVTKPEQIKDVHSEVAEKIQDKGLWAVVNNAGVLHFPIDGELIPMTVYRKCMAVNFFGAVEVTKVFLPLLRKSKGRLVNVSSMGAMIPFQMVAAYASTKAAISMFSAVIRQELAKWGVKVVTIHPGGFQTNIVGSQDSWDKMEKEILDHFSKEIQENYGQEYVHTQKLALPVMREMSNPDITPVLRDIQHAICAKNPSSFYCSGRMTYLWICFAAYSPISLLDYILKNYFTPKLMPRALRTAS
Protocol: as §2, §1

[1] = read-out: % Inhibition r17β-HSD1
[2] = read-out: % inhibition m17β-HSD1 @ 1 μM
[3] = read-out: % inhibition m17β-HSD2 @ 1 μM
[4] = read-out: % Inhibition r17β-HSD2
[5] = Tables 4 and 6, no % sign and concentration not given, Table 1 lists these compounds as inhibition @ 1 μM, read-out: IC50 [nM] or % inhibition m17β-HSD1 (bare number, kind not marked)
[6] = read-out: Inhibition @ 1 μM m17β-HSD1
[7] = human placental cytosolic enzyme, E1 500 nM, NADH, Tables 1, 4-11
[8] = read-out: Inhibition @ 1 μM m17β-HSD2

Row | SMILES | inhibition at […] (rat 17β-HSD1; [1]) [%] | inhibition at 1 µM (mouse 17β-HSD1; [2]) [%] | inhibition at 1 µM (mouse 17β-HSD2; [3]) [%] | inhibition at […] (rat 17β-HSD2; [4]) [%] | inhibition at 1 µM (mouse 17β-HSD1; [5]) [%] | inhibition at 1 µM (mouse 17β-HSD1; [6]) [%] | IC50 (human 17β-HSD1; [7]) [nM] | inhibition at 1 µM (mouse 17β-HSD2; [8]) [%] | IC50 (human 17β-HSD2) [nM] | pIC50 (mouse 17β-HSD2) | other results
1 | O=C(c1ccc(-c2ccc(F)cc2F)s1)c1cccc(O)c1F [C, reference compound] | 35 | 18 | 75 | 20 | – | – | – | – | – | – | inhibition at 0.1 µM (human 17β-HSD2; read-out: % inhibition h17β-HSD2 @ 100 nM): 87%; inhibition at 0.1 µM (human 17β-HSD1): 92%
2 | O=C(c1ccc(Br)s1)c1c(F)ccc(O)c1F [Compound 1e, (5-Bromo-thiophen-2-yl)-(2,6-difluoro-3-hydroxy-phenyl)-methanone] | 5 | 5 | 80 | 60 | – | – | – | – | – | – | inhibition at 0.1 µM (human 17β-HSD2; read-out: IC50 [nM] or % inhibition h17β-HSD1 (second column so headed, Table 9): % @ 100 nM): 71%; inhibition at 0.1 µM (human 17β-HSD1): 85%
3 | O=C(c1ccc(-c2ccc(F)cc2F)s1)c1c(F)ccc(O)c1F [Compound 10, (2,6-Difluoro-3-hydroxy-phenyl)-[5-(2,4-difluoro-phenyl)-thiophen-2-yl]-methan-one] | 63 | – | – | 66 | 41 | 41 | 3.5 | 67 | – | – | –
4 | COc1ccc(-c2ccc(C(=O)c3c(F)ccc(O)c3F)s2)cc1S(=O)(=O)N1CCOCC1 [Compound 19, (2,6-Difluoro-3-hydroxy-phenyl)-{5-[4-methoxy-3-(morpholine-4-sulfonyl)-phen-yl]-thiophen-2-yl}-methanone] | 26 | – | – | – | – | 58 | – | 44 | – | – | inhibition at 1 µM (human 17β-HSD2): 85%; inhibition at 1 µM (human 17β-HSD1): 79%; % Inhibition r17β-HSD2 (rat 17β-HSD2): n.i.^c
5 | O=C(c1ccc(-c2ccc(O)c(Cl)c2)s1)c1c(F)ccc(O)c1F [Compound 20, [5-(3-Chloro-4-hydroxy-phenyl)-thiophen-2-yl]-(2,6-difluoro-3-hydroxy-phenyl)-methanone] | – | 50 | 95 | – | – | 50 | 0.5 | 82 | 20 | – | inhibition at 0.5 µM (rat 17β-HSD1; Cmpd conc. 500 nM, read-out: % Inhibition r17β-HSD1): 48%; inhibition at 0.5 µM (rat 17β-HSD2; [4]): 98%
6 | CC(=O)N1CCN(Cc2cc(-c3ccc(C(=O)c4c(F)ccc(O)c4F)s3)cc(Cl)c2O)CC1 [Compound 29, 1-(4-{3-Chloro-5-[5-(2,6-difluoro-3-hydroxy-benzoyl)-thiophen-2-yl]-2-hydroxy-benzyl}-piperazin-1-yl)-ethanone] | – | – | – | – | – | 16 | – | 40 | 11 | – | % Inhibition r17β-HSD1 (rat 17β-HSD1): n.i.^c; IC50 (human 17β-HSD1): 2.1 nM; % Inhibition r17β-HSD2 (rat 17β-HSD2): n.i.^c
7 | O=C(c1ccc(-c2cc(Cl)c(O)c(Cn3ccnn3)c2)s1)c1c(F)ccc(O)c1F [Compound 32, [5-(3-Chloro-4-hydroxy-5-[1,2,3]triazol-1-ylmethyl-phenyl)-thiophen-2-yl]-(2,6-difluoro-3-hydroxy-phenyl)-methanone] | – | – | – | 66 | – | – | – | – | – | – | % Inhibition r17β-HSD1 (rat 17β-HSD1): n.i.^c; inhibition at 1 µM (human 17β-HSD2): 30%; Inhibition @ 1 μM m17β-HSD1 (mouse 17β-HSD1; compound 1 μM, Table 1, bare numbers): n.i.^c; inhibition at 1 µM (human 17β-HSD1): 37%
8 | Nc1cccc(-c2ccc(C(=O)c3cc(F)c(F)c(O)c3F)s2)c1 [Compound 35, [5-(3-Aminophenyl)thiophen-2-yl](2,4,5-trifluoro-3-hydroxyphenyl)methanone] | 46 | – | – | 100 | 13 | 9 | 49 | 80 | 5 | 6.75 | –
9 | O=C(c1ccc(-c2cccc(NS(=O)(=O)c3ccccc3OC(F)(F)F)c2)s1)c1cc(F)c(F)c(O)c1F [Compound 37, N-{3-[5-(2,4,5-Trifluoro-3-hydroxybenzoyl)thiophen-2-yl]phenyl}-2-trifluoromethoxybenzenesulfonamide] | 29 | 55 | – | 93 | – | 55 | 5.8 | – | – | 7.10 and 7.66 | –
10 | O=C(c1ccc(-c2ccc(F)cc2F)s1)c1cc(F)c(F)c(O)c1F [Compound 40, [5-(2,4-Difluoro-phenyl)-thiophen-2-yl]-(2,4,5-trifluoro-3-hydroxy-phenyl)-methanone] | 58 | – | – | 86 | 27.5 | 28 | – | – | 1.4 | 6.49 | IC50 (human 17β-HSD1): 7.2 nM
